Experimental data from publication PMC3265452 (PLoS Neglected Tropical Diseases, 2012).
Counter-ions that a name gives are not always drawn. Residues, ends and D or L forms follow the SMILES beside them. *: point of attachment. Cbz = O=C(OCc1ccccc1)*

Each molecule was assayed against AaDOP2 (Aedes aegypti, UniProt H6D5H2) (assay: AaDOP2 antagonist screen of the LOPAC1280 library (HEK-CRELuc-Aadop2 cells, luminescence)). Conditions: not given.
Assay type: cell-based

Sequence of AaDOP2 (H6D5H2 1-476): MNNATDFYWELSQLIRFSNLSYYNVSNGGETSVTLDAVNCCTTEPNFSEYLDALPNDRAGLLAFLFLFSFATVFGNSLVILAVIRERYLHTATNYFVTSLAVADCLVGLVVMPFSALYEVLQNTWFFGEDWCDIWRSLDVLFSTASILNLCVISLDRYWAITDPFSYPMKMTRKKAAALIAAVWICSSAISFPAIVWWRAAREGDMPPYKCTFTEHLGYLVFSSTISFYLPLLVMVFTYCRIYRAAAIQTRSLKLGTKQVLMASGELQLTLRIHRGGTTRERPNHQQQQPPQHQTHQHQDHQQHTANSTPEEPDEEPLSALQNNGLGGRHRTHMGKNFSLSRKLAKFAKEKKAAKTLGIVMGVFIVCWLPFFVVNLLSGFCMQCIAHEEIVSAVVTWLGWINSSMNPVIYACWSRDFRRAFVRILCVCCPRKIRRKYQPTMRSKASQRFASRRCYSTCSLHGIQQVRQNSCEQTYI

Point of comparison: `COCC(=O)O[C@]1(CCN(C)CCCc2nc3ccccc3[nH]2)CCc2cc(F)ccc2[C@@H]1C(C)C` [Compound 779, Mibefradil dihydrochloride], “Compound effect (percent receptor signaling in presence of test compound, relative lux units relative to the SCH23390 control)” value 93. Against it:
- CC(=O)Oc1cc(C(C)C)c(OCCN(C)C)cc1C [Compound 773, Moxisylyte hydrochloride] — lower, 33
- CSC(N)=NCCC[C@H](N)C(=O)O [Compound 774, S-Methyl-L-thiocitrulline acetate] — higher, 97
- COc1ccc2[nH]cc(CCNC(C)=O)c2c1 [Compound 775, Melatonin] — higher, 104
- Cc1cccc(C#Cc2ccccc2)n1.Cl [Compound 778, 6-Methyl-2-(phenylethynyl)pyridine hydrochloride] — lower, 74
- CNc1ncnc2c1ncn2[C@@H]1O[C@H](CO)[C@@H](O)[C@H]1O [Compound 780, N6-Methyladenosine] — lower, 80
- Cc1ccccc1/C=C/C1=NCCN1 [Compound 783, Metrazoline oxalate] — lower, 91
- CCCn1c(=O)c2[nH]c(-c3ccc(OCC(=O)Nc4ccc(C#N)cc4)cc3)nc2n(CCC)c1=O [Compound 785, MRS 1754] — higher, 98
- COc1cc2c(cc1O)CC[C@@H]1[C@@H]2CC[C@]2(C)[C@@H](O)CC[C@@H]12 [Compound 786, 2-methoxyestradiol] — higher, 99
- Nc1ncnc2c1ncn2[C@@H]1O[C@H](COP(=O)(O)CP(=O)(O)OP(=O)([O-])[O-])[C@H](O)C1O.[Li+].[Li+] (stereo partly drawn) [Compound 788, alpha,beta-Methylene adenosine 5'-triphosphate dilithium] — higher, 97
- COc1ccc(OC)c(C(O)C(C)N)c1 (centres unmarked) [Compound 789, Methoxamine hydrochloride] — lower, 92
- O=C1c2c(O)ccc(O)c2C(=O)c2c(NCCNCCO)ccc(NCCNCCO)c21 [Compound 790, Mitoxantrone] — lower, 18
- COc1ccc2[nH]cc(CCN)c2c1.Cl [Compound 791, O-Methylserotonin hydrochloride] — higher, 118
- C[Se]C[C@H](N)C(=O)O.Cl [Compound 792, Se-(methyl)selenocysteine hydrochloride] — higher, 129
- CC(C)[C@H](NC(=O)OCc1ccccc1)C(=O)N[C@H](C=O)Cc1ccccc1 [Compound 793, MDL 28170] (Cbz-Val-Phe-aldehyde) — higher, 96
- [H]/N=C(/NC)NCCC[C@H](N)C(=O)O [Compound 795, NG-Monomethyl-L-arginine acetate] — higher, 94
- CN1CC[C@]2(CCN3CCc4c(oc5ccccc45)[C@@H]3C2)N(C)C1=O [Compound 796, MK-912] — lower, 73

Same assay, conditions: 10 µM compound, 300 nM dopamine, 2 hr; hit = compound effect <20

Point of comparison: `Cl.NCCS` [Compound 787, Cysteamine hydrochloride], “Compound effect (percent receptor signaling in presence of test compound, relative lux units relative to the SCH23390 control)” value 94%. Against it:
- C[C@](N)(CCP(=O)(O)O)C(=O)O.Cl [Compound 781, (S)-MAP4 hydrochloride] — higher, 100%

Same assay, conditions: read-out: % of the SCH23390 effect (percent inhibition of receptor response relative to the SCH23390 control)

Work on `O=C1c2c(O)ccc(O)c2C(=O)c2c(NCCNCCO)ccc(NCCNCCO)c21` [Compound 790, Mitoxantrone] yielded an inhibition at 10 µM of 83%.
